From the METLIN SMRT retention time set (Domingo-Almenara et al. 2019)

Assay: gradient 5% acetonitrile 3 min, to 50% in 2 min, to 85% in 15 min, held 3 min, 100 µL/min
Details: column: Zorbax Extend-C18 2.1 x 50 mm; eluents: water / acetonitrile, 0.1% formic acid
Method in brief: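 Pure standards were analyzed in mixtures of ~100 molecules using HPLC coupled to a quadrupole time-of-flight mass spectrometer, in both positive and negative ionization mode. Separation used a Zorbax Extend-C18 column (2.1 × 50 mm, 1.8 μm) at 100 μL/min, with water and acetonitrile each containing 0.1% formic acid. Dead and dwell volumes were 40 μL and 900 μL, and data were collected over 3 months. Retention time was read from computationally picked adduct peaks, each inspected manually.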

Structure (SMILES)	RP-LC retention time [s]
Cc1ccc(S(=O)(=O)Nc2ccc3c(c2)CCC(=O)N3CC(C)C)cc1	887
CCCn1c(=O)c(C)nc2cc(-c3noc(Cc4ccc(F)cc4)n3)ccc21	1060
Cc1ccc(-c2cn3c(CC(=O)N4CCN(c5cc(Cl)ccc5C)CC4)csc3n2)cc1C	1130
CCn1nccc1-c1cccc(-c2noc(-c3cnccn3)n2)c1	883
CCOc1ccccc1-c1nc(Cc2nc(-c3ccc(OC)cc3)oc2C)no1	1160
CCc1nc2c(=O)n(CC(=O)N(CC)Cc3ccccc3)nc(C)c2s1	740
Cc1cc(N2CCOCC2)n2nc(CN3CCN(c4cccc(Cl)c4)CC3)nc2n1	656
Cn1nccc1-c1cccc(-c2noc(-c3ccsc3)n2)c1	1020
COc1cc(OC)cc(C(=O)N2CCn3cnnc3C2)c1	578
Cc1nc(-c2ccc(C(=O)NCc3ccc4c(c3)OCO4)cc2)cs1	844
Cc1cc(Cl)ccc1OCCCC(=O)NO	801
O=C(Nc1ccc(Br)cc1F)C1CCCN(c2cnc3ccccc3n2)C1 (stereo not given)	1070
COc1ccc(OC)c(S(=O)(=O)N2CCCC(C(=O)NCc3ccncc3)C2)c1 (stereo not given)	604
Cc1nn(-c2ccccc2)c2c1N(C(=O)CCC(=O)NCCc1c[nH]c3ccccc13)CCS2	850
COC(=O)c1c(-c2ccc(Cl)cc2)noc1NCCCN1CCOCC1	667
CCc1ccc(CNC(=O)c2c(O)c3cccnc3[nH]c2=O)cc1	1040
CCOc1ccccc1NC(=O)CSc1nnc2c3cc(-c4ccc(C)c(C)c4)nn3ccn12	1090
Cc1nccn1C1CN(C(=O)CCCc2c[nH]c3ccccc23)C1	611
CCN1C(=O)COc2ccc(-c3nc(NC(=O)CCc4ccccc4)sc3C)cc21	1040
CC(C)C(=O)Nc1ccc(C2(C(=O)O)CCC2)cc1	720
CCCc1nc(C(C)(C)O)c(C(=O)O)n1Cc1ccc(-c2ccccc2-c2nn[nH]n2)cc1	687
CCOCC(=O)NCc1ccc2c(c1)CCCN2C(=O)C1CCC1	750
O=C(c1ccc(F)cc1F)N1CCN(c2cc(-c3ccc(F)cc3)[nH]n2)CC1	736

Structure (SMILES)	RP-LC retention time [s]
CC1CCN(c2nc(-c3ccc(Cl)cc3)nc3ccccc23)CC1	947
Cc1ccc(C)c(S(=O)(=O)N2CCC(C)(C(=O)NCc3ccccc3C)CC2)c1	1050
Cc1sc(-c2nc(C(C)C)cs2)cc1S(=O)(=O)NCc1cccs1	1150
CC1=C(c2ccccc2)S(=O)(=O)N=C1N1CCC(NC(=O)NCC(C)C)CC1	790
Cc1ccnc(Nc2nc(C)c3ccccc3n2)n1	580
CCN1CCCn2cc(S(=O)(=O)Nc3ccc(F)c(Cl)c3)cc2C1=O	738
CC(C)(C)c1csc(-c2csc(S(=O)(=O)Nc3ccc(Cl)cc3)c2)n1	1300
CC1=NOC(C)(CNC(=O)NC2CCCCC2)C1 (stereo not given)	659
O=C(c1cn(-c2ccc(-c3nc(C4CC4)no3)cn2)cn1)N1CCCC1	676
Nc1ccc(S(=O)(=O)N2CCCCC2c2cccnc2)cc1 (stereo not given)	555
COc1cc(OC)cc(-c2noc(-c3nn(-c4ccc(Cl)cc4)ccc3=O)n2)c1	973
Cc1ccc(-n2c(=O)n(C)c(=O)c3cc(C(=O)Nc4ccc(F)cc4)cnc32)cc1	904
COc1cccc(S(=O)(=O)N2CCC(c3noc(-c4cccc(C)c4)n3)CC2)c1	1180
CCOC(=O)c1c(C)[nH]c(C(=O)N2CCC(CC(=O)NCC3CCCO3)CC2)c1C (stereo not given)	657
Cc1ccc(-c2nccn3cc(C(=O)NCc4ccncc4)nc23)cc1	633
CC(C)(Oc1ccc(Cl)cc1)C(=O)NCCN1CCN(C(=O)c2cccs2)CC1	592
CCOc1ccc(C(=O)NCc2c(-c3ccccc3)nc3sc(CC)nn23)cc1	943
O=C(NC1CC1)c1ccc(OCC2CCCN2C(=O)Cc2ccc(F)cc2)cc1 (stereo not given)	813
CC1CCN(c2nn(CC(=O)NC3CCc4ccccc43)c(=O)c3ccccc23)CC1 (stereo not given)	1140
COc1cccc(-n2c(N3CCC(C(=O)NCC(C)C)CC3)nc3ccsc3c2=O)c1	773
Cc1cccc(NC(=O)Nc2nccn(-c3cccc(Cl)c3C)c2=O)c1	1110
CN1C(=O)NC2(CCN(C(=O)C3c4ccccc4Oc4ccccc43)CC2)C1=O	705
